Measurements reported in patent US12649727B2, “EFGR inhibitor, preparation method therefor and application thereof” (Abbisko Therapeutics Co., Ltd, priority 2020, dated 2026).

Key:
Format in all cases: cell-based
A431 (EGFR-WT) = test: Proliferation experiment, A431 cell line (CellTiter-Glo); settings: Homo sapiens, A-431; A431 cells, cultured for 72 hrs with compound, CTG analysis
[1] = target: Ba/F3 EGFR-D770-N771ins_SVD (Homo sapiens, UniProt P00533, DUP768-770, cells depend on it); test: Proliferation experiment of Ba/F3 cell line, EGFR-D770-N771ins_SVD (CellTiter-Glo); settings: cultured for 72 hrs with compound, CTG analysis, read-out: Ba/F3 EGFR-D770-N771ins_SVD IC50
Sequence of Ba/F3 EGFR-D770-N771ins_SVD (P00533 with tags, fused parts or gaps DUP768-770): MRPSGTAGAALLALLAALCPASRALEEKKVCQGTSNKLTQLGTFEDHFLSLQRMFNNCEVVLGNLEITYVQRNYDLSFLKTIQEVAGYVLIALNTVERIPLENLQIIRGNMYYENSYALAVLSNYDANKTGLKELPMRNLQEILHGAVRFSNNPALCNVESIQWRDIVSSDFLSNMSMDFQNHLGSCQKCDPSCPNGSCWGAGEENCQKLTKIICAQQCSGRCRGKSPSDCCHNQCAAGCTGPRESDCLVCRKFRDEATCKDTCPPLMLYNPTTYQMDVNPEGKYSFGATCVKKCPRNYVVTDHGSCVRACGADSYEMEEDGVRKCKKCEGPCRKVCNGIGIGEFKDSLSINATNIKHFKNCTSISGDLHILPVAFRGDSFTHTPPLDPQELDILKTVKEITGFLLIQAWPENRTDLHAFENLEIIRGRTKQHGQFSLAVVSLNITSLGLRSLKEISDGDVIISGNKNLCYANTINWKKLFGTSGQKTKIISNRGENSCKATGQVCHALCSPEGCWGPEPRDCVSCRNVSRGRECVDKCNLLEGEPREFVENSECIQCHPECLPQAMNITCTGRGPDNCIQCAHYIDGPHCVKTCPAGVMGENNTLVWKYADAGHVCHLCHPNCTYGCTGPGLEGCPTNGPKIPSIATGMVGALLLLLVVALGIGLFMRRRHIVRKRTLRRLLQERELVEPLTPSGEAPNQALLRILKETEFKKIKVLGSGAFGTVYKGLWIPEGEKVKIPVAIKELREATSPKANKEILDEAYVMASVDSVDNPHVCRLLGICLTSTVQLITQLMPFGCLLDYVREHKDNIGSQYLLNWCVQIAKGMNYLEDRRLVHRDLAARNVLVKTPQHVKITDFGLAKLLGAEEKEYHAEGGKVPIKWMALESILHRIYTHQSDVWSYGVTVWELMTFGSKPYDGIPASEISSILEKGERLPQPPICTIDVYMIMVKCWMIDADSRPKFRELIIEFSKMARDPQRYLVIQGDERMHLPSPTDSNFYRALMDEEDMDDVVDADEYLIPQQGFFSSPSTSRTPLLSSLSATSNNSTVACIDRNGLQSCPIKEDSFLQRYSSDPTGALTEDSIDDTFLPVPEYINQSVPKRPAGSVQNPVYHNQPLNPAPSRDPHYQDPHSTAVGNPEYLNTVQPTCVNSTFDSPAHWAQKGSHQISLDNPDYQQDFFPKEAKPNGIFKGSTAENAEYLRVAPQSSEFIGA
How it was run: (§1)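 […] Ba/F3 cells expressing EGFR insertion mutants treated 72 h at 37 °C with 9 concentrations, 3.16-fold dilutions, top 10 μM, 0.1% DMSO, in triplicate. Viability by CellTiter-Glo luminescence with T0 reference plate; IC50 (nM) from non-linear dose-response fit.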

[2] = target: Ba/F3 EGFR-V769_D770insASV (Homo sapiens, UniProt P00533, DUP767-769, cells depend on it); test: Proliferation experiment of Ba/F3 cell line, EGFR-V769_D770insASV (CellTiter-Glo); settings: cultured for 72 hrs with compound, CTG analysis, read-out: Ba/F3 EGFR-V769_D770insASV IC50
Sequence of Ba/F3 EGFR-V769_D770insASV (P00533 with tags, fused parts or gaps DUP767-769): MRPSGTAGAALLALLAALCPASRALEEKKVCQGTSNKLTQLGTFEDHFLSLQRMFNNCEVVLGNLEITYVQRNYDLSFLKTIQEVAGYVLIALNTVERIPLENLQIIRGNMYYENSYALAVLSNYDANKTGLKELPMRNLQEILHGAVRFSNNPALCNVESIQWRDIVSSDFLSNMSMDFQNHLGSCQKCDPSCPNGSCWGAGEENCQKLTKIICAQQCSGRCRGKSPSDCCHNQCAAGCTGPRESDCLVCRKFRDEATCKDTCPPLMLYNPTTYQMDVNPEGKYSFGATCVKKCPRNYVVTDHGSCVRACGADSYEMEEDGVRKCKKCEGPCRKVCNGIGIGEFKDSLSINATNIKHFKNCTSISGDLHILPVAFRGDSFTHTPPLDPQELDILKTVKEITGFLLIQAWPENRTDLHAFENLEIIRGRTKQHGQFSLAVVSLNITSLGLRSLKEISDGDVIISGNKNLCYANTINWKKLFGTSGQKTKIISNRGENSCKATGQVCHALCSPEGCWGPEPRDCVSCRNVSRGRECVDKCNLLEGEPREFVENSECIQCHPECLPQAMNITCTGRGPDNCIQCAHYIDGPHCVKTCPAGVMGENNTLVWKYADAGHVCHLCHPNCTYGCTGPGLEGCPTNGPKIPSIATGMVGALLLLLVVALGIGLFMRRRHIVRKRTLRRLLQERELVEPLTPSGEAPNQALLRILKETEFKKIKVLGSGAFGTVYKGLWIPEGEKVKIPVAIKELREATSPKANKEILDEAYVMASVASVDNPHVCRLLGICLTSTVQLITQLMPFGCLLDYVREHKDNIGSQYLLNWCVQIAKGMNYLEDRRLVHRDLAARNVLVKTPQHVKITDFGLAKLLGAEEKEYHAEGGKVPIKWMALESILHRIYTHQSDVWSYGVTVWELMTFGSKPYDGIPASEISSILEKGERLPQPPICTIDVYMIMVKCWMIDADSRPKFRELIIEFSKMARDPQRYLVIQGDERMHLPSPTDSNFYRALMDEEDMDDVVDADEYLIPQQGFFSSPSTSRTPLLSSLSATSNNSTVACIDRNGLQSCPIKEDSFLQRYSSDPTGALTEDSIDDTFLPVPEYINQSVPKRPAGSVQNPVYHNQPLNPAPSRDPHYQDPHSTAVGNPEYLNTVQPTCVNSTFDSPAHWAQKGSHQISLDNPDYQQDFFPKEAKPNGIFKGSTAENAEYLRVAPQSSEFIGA
How it was run: as §1

SMILES	IC50 (A431 (EGFR-WT))	GI50 [1]	GI50 [2]
C=CC(=O)Nc1cc2c(Nc3cc(-c4ccc(F)cc4F)ccc3F)ncnc2cc1OCCCN1CCOCC1 [Example 11, N-(7-(3-morpholinopropoxy)-4-((2′,4,4′-trifluoro-[1,1′-biphenyl]-3-yl)amino)quinazolin-6-yl)acrylamide]	0.479 µM	0.0293 µM	0.119 µM
C=CC(=O)Nc1cc2c(Nc3cccc(-c4ccc(F)cc4F)c3)ncnc2cc1OCCN1CCC(F)(F)CC1 [Example 21, N-(4-((2′,4′-difluoro-[1,1′-biphenyl]-3-yl)amino)-7-(2-(4,4-difluoropiperidin-1-yl)ethoxy)quinazolin-6-yl)acrylamide]	0.966 µM	0.104 µM	0.24 µM
C=CC(=O)Nc1cc2c(Nc3cccc(-c4c(F)cccc4F)c3)ncnc2cc1OCCCN1CCN(C2COC2)CC1 [Example 30, N-(4-((2′,6′-difluoro-[1,1′-biphenyl]-3-yl)amino)-7-(3-(4-(oxetan-3-yl)piperazin-1-yl)propoxy)quinazolin-6-yl)acrylamide]	0.0681 µM	0.0253 µM	0.0541 µM
C=CC(=O)Nc1cc2c(Nc3cccc(-c4c(F)cccc4F)c3)ncnc2cc1OCCCN1CC[C@@H](N(C)C)C1 [Example 34, (R)-N-(4-((2′,6′-difluoro-[1,1′-biphenyl]-3-yl)amino)-7-(3-(3-(dimethylamino)pyrrolidin-1-yl)propoxy)quinazolin-6-yl)acrylamide]	0.26 µM	0.0215 µM	0.0331 µM
C=CC(=O)Nc1cc2c(Nc3cncc(-c4c(F)cccc4F)c3)ncnc2cc1O[C@@H]1CCN(C)C1 [Example 64, (R)-N-(4-((5-(2,6-difluorophenyl)pyridin-3-yl)amino)-7-((1-methylpyrrolidin-3-yl)oxy)quinazolin-6-yl)acrylamide]	1.01 µM	0.0345 µM	0.0636 µM
C=CC(=O)Nc1cc2c(Nc3cncc(-c4ccccc4F)c3)ncnc2cc1OCCCN1CCOCC1 [Example 58, N-(4-((5-(2-fluorophenyl)pyridin-3-yl)amino)-7-(3-morpholinopropoxy)quinazolin-6-yl)acrylamide]	0.84 µM	0.0051 µM	0.0136 µM
C=CC(=O)Nc1cc2c(Nc3cccc(-c4c(F)cccc4F)c3)ncnc2cc1OCCCN1CC[C@H](N(C)C)C1 [Example 35, (S)-N-(4-((2′,6′-difluoro-[1,1′-biphenyl]-3-yl)amino)-7-(3-(3-(dimethylamino)pyrrolidin-1-yl)propoxy)quinazolin-6-yl)acrylamide]	0.193 µM	0.0268 µM	0.0356 µM
C=CC(=O)Nc1cc2c(Nc3cccc(-c4ccccc4F)c3)ncnc2cc1OCCCN1CCOCC1 [Example 45, N-(4-((2′-fluoro-[1,1′-biphenyl]-3-yl)amino)-7-(3-morpholinopropoxy)quinazolin-6-yl)acrylamide]	0.066 µM	0.017 µM	0.027 µM
C=CC(=O)Nc1cc2c(Nc3cccc(-c4ccccc4F)c3)ncnc2cc1OCCCN1CCN(C)CC1 [Example 46, N-(4-((2′-fluoro-[1,1′-biphenyl]-3-yl)amino)-7-(3-(4-methylpiperazin-1-yl)propoxy)quinazolin-6-yl)acrylamide]	0.12 µM	0.0119 µM	0.0158 µM
C=CC(=O)Nc1cc2c(Nc3cccc(-c4ccc(F)cc4F)c3)ncnc2cc1O[C@@H]1CCN(C)C1 [Example 8, (R)-N-(4-((2′,4′-difluoro-[1,1′-biphenyl]-3-yl)amino)-7-((1-methylpyrrolidin-3-yl)oxy)quinazolin-6-yl)acrylamide]	0.343 µM	0.0888 µM	0.178 µM
C=CC(=O)Nc1cc2c(Nc3cccc(-c4c(F)cccc4F)c3)ncnc2cc1OCCCN1CCN(CC(F)(F)F)CC1 [Example 31, N-(4-((2′,6′-difluoro-[1,1′-biphenyl]-3-yl)amino)-7-(3-(4-(2,2,2-trifluoroethyl)piperazin-1-yl)propoxy)quinazolin-6-yl)acrylamide]	0.225 µM	0.0682 µM	0.111 µM

The next lines start with the values.

IC50 (A431 (EGFR-WT))	GI50 [1]	GI50 [2]	SMILES
0.142 µM	0.003 µM	0.0034 µM	C=CC(=O)Nc1cc2c(Nc3ccnc(-c4ccccc4F)c3)ncnc2cc1O[C@@H]1CCN(C2CCN(C)CC2)C1 [Example 116, (R)-N-(4-((2-(2-fluorophenyl)pyridin-4-yl)amino)-7-((1-(1-methylpiperidin-4-yl)pyrrolidin-3-yl)oxy)quinazolin-6-yl)acrylamide]
0.687 µM	0.0101 µM	0.0255 µM	C=C(F)C(=O)Nc1cc2c(Nc3ccnc(-c4ccccc4F)c3)ncnc2cc1OCC(F)(F)F [Example 88, 2-fluoro-N-(4-((2-(2-fluorophenyl)pyridin-4-yl)amino)-7-(2,2,2-trifluoroethoxy)quinazolin-6-yl)acrylamide]
0.316 µM	0.0033 µM	0.0051 µM	C=C(F)C(=O)Nc1cc2c(Nc3ccnc(-c4ccccc4F)c3)ncnc2cc1OC [Example 86, 2-fluoro-N-(4-((2-(2-fluorophenyl)pyridin-4-yl)amino)-7-methoxyquinazolin-6-yl)acrylamide]
0.0381 µM	0.0034 µM	0.005 µM	C=CC(=O)Nc1cc2c(Nc3ccnc(-c4ccccc4F)c3)ncnc2cc1OCCCN1CCOCC1 [Example 69, N-(4-((2-(2-fluorophenyl)pyridin-4-yl)amino)-7-(3-morpholinopropoxy)quinazolin-6-yl)acrylamide]
0.0639 µM	0.0038 µM	0.0068 µM	C=CC(=O)Nc1cc2c(Nc3ccnc(-c4ccccc4F)c3)ncnc2cc1OCCCN1CCN(CCO)CC1 [Example 122, N-(4-((2-(2-fluorophenyl)pyridin-4-yl)amino)-7-(3-(4-(2-hydroxyethyl)piperazin-1-yl)propoxy)quinazolin-6-yl)acrylamide]
1.53 µM	0.002 µM	0.0063 µM	C=CC(=O)Nc1cc2c(Nc3ccnc(-c4ccccc4F)c3)ncnc2cc1N1CCC(N2CCOCC2)CC1 [Example 98, N-(4-((2-(2-fluorophenyl)pyridin-4-yl)amino)-7-(4-morpholinopiperidin-1-yl)quinazolin-6-yl)acrylamide]
0.355 µM	0.0305 µM	0.0167 µM	C=CC(=O)Nc1cc2c(Nc3ccnc(-c4ccccc4F)c3)ncnc2cc1F [Example 92, N-(7-fluoro-4-((2-(2-fluorophenyl)pyridin-4-yl)amino)quinazolin-6-yl)acrylamide]
0.487 µM	0.0041 µM	0.0107 µM	C=C(F)C(=O)Nc1cc2c(Nc3ccnc(-c4ccccc4F)c3)ncnc2cc1OCC [Example 87, 2-fluoro-N-(4-((2-(2-fluorophenyl)pyridin-4-yl)amino)-7-ethoxyquinazolin-6-yl)acrylamide]
0.0321 µM	0.0042 µM	0.0068 µM	C=CC(=O)Nc1cc2c(Nc3ccnc(-c4ccc(F)cc4F)c3)ncnc2cc1OCCCN1CCN(C)CC1 [Example 79, N-(4-((2-(2,4-difluorophenyl)pyridin-4-yl)amino)-7-(3-(4-methylpiperazin-1-yl)propoxy)quinazolin-6-yl)acrylamide]
0.0846 µM	0.0018 µM	0.0034 µM	C=CC(=O)Nc1cc2c(Nc3ccnc(-c4ccccc4F)c3)ncnc2cc1O[C@@H]1CCN(CCOC)C1 [Example 111, (R)—N-(4-((2-(2-fluorophenyl)pyridin-4-yl)amino)-7-((1-(2-methoxyethyl)pyrrolidin-3-yl)oxy)quinazolin-6-yl)acrylamide]
